Experimental data taken from PubChem BioAssay AID248 (DTP/NCI, 2004).
“And” between values parts separate entries of the source, which are not always exact repeats. Identical values can stand only once. Inconclusive results and toxic doses are left out.

Tested on: L1210 leukemia ip in BDF1 mice, survival T/C
Assay: NCI In Vivo Anticancer Drug Screen. Data for tumor model L1210 Leukemia (intraperitoneal) in B6D2F1 (BDF1) mice
Conditions: endpoint: mean survival time, higher = longer survival
Outline: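 Mice bearing the transplanted tumor received compound or vehicle. Survival of the treated group was divided by that of the vehicle-treated control group to give the ratio.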

[1] = dose: 100.0 mg/kg/injection, schedule: Q01DX009 (ip), vehicle: Klucel (hydroxypropylcellulose) (HPC)
[2] = dose: 100.0 mg/kg/injection, schedule: Q04DX003 (ip), vehicle: Klucel (hydroxypropylcellulose) (HPC)
[3] = dose: 200.0 mg/kg/injection, schedule: Q01DX009 (ip), vehicle: Klucel (hydroxypropylcellulose) (HPC)
[4] = dose: 200.0 mg/kg/injection, schedule: Q04DX003 (ip), vehicle: Klucel (hydroxypropylcellulose) (HPC)
[5] = dose: 400.0 mg/kg/injection, schedule: Q01DX009 (ip), vehicle: Klucel (hydroxypropylcellulose) (HPC)
[6] = dose: 400.0 mg/kg/injection, schedule: Q04DX003 (ip), vehicle: Klucel (hydroxypropylcellulose) (HPC)
[7] = dose: 100.0 mg/kg/injection, schedule: Q01DX009 (ip), vehicle: saline
[8] = dose: 200.0 mg/kg/injection, schedule: Q01DX009 (ip), vehicle: saline
[9] = dose: 400.0 mg/kg/injection, schedule: Q01DX009 (ip), vehicle: saline
[10] = dose: 100.0 mg/kg/injection, schedule: Q04DX003 (ip), vehicle: saline
[11] = dose: 200.0 mg/kg/injection, schedule: Q04DX003 (ip), vehicle: saline

## CCn1c(C)nc2cc(N=Cc3ccc(N(CCCl)CCCl)cc3F)ccc21
dose: 100.0 mg/kg/injection, schedule: Q04DX002 (ip), vehicle: Klucel (hydroxypropylcellulose) (HPC)
  T/C: 95 % of control
dose: 200.0 mg/kg/injection, schedule: Q04DX002 (ip), vehicle: Klucel (hydroxypropylcellulose) (HPC)
  T/C: 98 % of control
dose: 400.0 mg/kg/injection, schedule: Q04DX002 (ip), vehicle: Klucel (hydroxypropylcellulose) (HPC)
  T/C: 91 % of control

## CCOC(=O)c1ccc(NC(=O)Nc2ccc(Cl)cc2)cc1
[1]
  T/C: 97 % of control
[2]
  T/C: 96 % of control
[3]
  T/C: 104 % of control
[4]
  T/C: 104 % of control
[5]
  T/C: 97 % of control
[6]
  T/C: 100 % of control

## CCNC(=O)CS(=O)(=O)c1ccc(C)cc1
dose: 100.0 mg/kg/injection, schedule: Q04DX003 (ip), vehicle: saline with Tween-80
  T/C: 101 % of control
dose: 200.0 mg/kg/injection, schedule: Q04DX003 (ip), vehicle: saline with Tween-80
  T/C: 94 % of control
dose: 400.0 mg/kg/injection, schedule: Q04DX003 (ip), vehicle: saline with Tween-80
  T/C: 97 % of control

## O=C(CCCl)N1CCN(C(=O)CCCl)CC1
[1]
  T/C: 106 % of control
[7]
  T/C: 103 % of control
[2]
  T/C: 100 % of control
dose: 117.32 mg/kg/injection, schedule: Q01DX009 (ip), vehicle: saline
  T/C: 119 % of control
dose: 148.0 mg/kg/injection, schedule: Q01DX Z (ip), vehicle: methylcellulose (MC)
  T/C: 100 % of control
dose: 176.0 mg/kg/injection, schedule: Q01DX009 (ip), vehicle: saline
  T/C: 100 % of control
[3]
  T/C: 108 % of control
[8]
  T/C: 119 % of control
[4]
  T/C: 99 % of control
dose: 222.0 mg/kg/injection, schedule: Q01DX Z (ip), vehicle: methylcellulose (MC)
  T/C: 104 % of control
dose: 264.0 mg/kg/injection, schedule: Q01DX009 (ip), vehicle: saline
  T/C: 116 % of control
dose: 333.0 mg/kg/injection, schedule: Q01DX Z (ip), vehicle: methylcellulose (MC)
  T/C: 119 % of control
[5]
  T/C: 122 % of control
[9]
  T/C: 161 % of control and 167 % of control
[6]
  T/C: 121 % of control
dose: 500.0 mg/kg/injection, schedule: Q01DX Z (ip), vehicle: methylcellulose (MC)
  T/C: 97 % of control
dose: 800.0 mg/kg/injection, schedule: Q01DX009 (ip), vehicle: Klucel (hydroxypropylcellulose) (HPC)
  T/C: 155 % of control

## CCSCCOP(=S)(N(CC)CC)N(CC)CC
dose: 100.0 mg/kg/injection, schedule: Q04DX002 (ip), vehicle: saline with Tween-80
  T/C: 88 % of control
dose: 200.0 mg/kg/injection, schedule: Q04DX002 (ip), vehicle: saline with Tween-80
  T/C: 95 % of control
dose: 400.0 mg/kg/injection, schedule: Q04DX002 (ip), vehicle: saline with Tween-80
  T/C: 104 % of control

## CC1(C)COCN1CN1COCC1(C)C
[10]
  T/C: 101 % of control
[11]
  T/C: 95 % of control

## Cc1n[nH]c(C)c1N=NN1CCOCC1
dose: 10.0 mg/kg/injection, schedule: Q01DX001 (ip), vehicle: saline
  T/C: 100 % of control and 107 % of control
dose: 20.0 mg/kg/injection, schedule: Q01DX001 (ip), vehicle: saline
  T/C: 107 % of control and 124 % of control
dose: 30.0 mg/kg/injection, schedule: Q01DX001 (ip), vehicle: saline
  T/C: 105 % of control

## CCOc1c(Cl)c(Cl)c(Cl)c(Cl)c1Cl
[1]
  T/C: 91 % of control
[3]
  T/C: 97 % of control
[5]
  T/C: 91 % of control

## CC12CC(c3ccccc3)C(C)(C(c3ccccc3)=C1c1ccccc1)C2(C)O (centres undefined)
dose: 100.0 mg/kg/injection, schedule: Q01DX001 (ip), vehicle: saline with Tween-80
  T/C: 93 % of control
dose: 200.0 mg/kg/injection, schedule: Q01DX001 (ip), vehicle: saline with Tween-80
  T/C: 100 % of control
dose: 400.0 mg/kg/injection, schedule: Q01DX001 (ip), vehicle: saline with Tween-80
  T/C: 88 % of control

## O=C1c2ccccc2C(=O)c2c(O)c(N3CCCCC3)cc(O)c21
[7]
  T/C: 91 % of control
[10]
  T/C: 88 % of control
[8]
  T/C: 89 % of control
[11]
  T/C: 88 % of control
[9]
  T/C: 94 % of control
dose: 400.0 mg/kg/injection, schedule: Q04DX003 (ip), vehicle: saline
  T/C: 92 % of control
